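Values below derive from 48-hour exposures of cells grown in 96-well plates, with endpoints linearly interpolated between the two concentrations bracketing the appropriate inhibition level. At the GI50, growth is halved.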 Activity calls are given as the source filed them. Rule as the data show it: active = GI50 up to about 1.1 µM and inactive = higher.
Assays:
Assay in all cases: inhibition of tumour cell growth, NCI panel, 48 h
[1] = test system: Hs-578T
[2] = test system: SK-MEL-5
[3] = test system: UACC-257
[4] = test system: OVCAR-5
[5] = test system: RXF 393
[6] = test system: SNB-19
[7] = test system: M14
[8] = test system: OVCAR-8
[9] = test system: HT-29
[10] = test system: HOP-62
[11] = test system: EKVX
[12] = test system: U-251
[13] = test system: SN12C
[14] = test system: SK-MEL-2
[15] = test system: NCI/ADR-RES
[16] = test system: DU-145
[17] = test system: 786-0
[18] = test system: SF-295
[19] = test system: MDA-N
[20] = test system: A549

Measured: GI50

COc1cc(/C=C/c2sc3ccccc3[n+]2C)ccc1N(C)C
inactive: [1] 41.3 µM | [2] 4.14 µM | [3] 2.96 µM | [4] 20.3 µM | [5] 16.6 µM | [6] 12.9 µM | [7] 13.4 µM | [8] 2.93 µM | [9] 17.9 µM | [10] 17.9 µM | [11] 21.8 µM | [12] 6.9 µM | [13] 12.9 µM | [14] 2.32 µM | [15] > 10 µM | [16] 13.6 µM | [17] 12.2 µM | [18] 47.4 µM | [19] 2.48 µM | [20] 5.98 µM

CN(Cc1cc(C(C)(C)C)cc(Br)c1O)Cc1cc(C(C)(C)C)cc(Br)c1O
inactive: [1] 2.65 µM | [2] 2.76 µM | [3] 2.48 µM | [4] 5.52 µM | [5] 2.21 µM | [6] 6.61 µM | [7] 4.28 µM | [8] 4.33 µM | [9] 4.48 µM | [10] 4.08 µM | [11] 3.83 µM | [12] 2.65 µM | [13] 4.19 µM | [14] 2.02 µM | [15] 3.03 µM | [16] 6.1 µM | [17] 3.69 µM | [18] 4.02 µM | [19] 4.5 µM | [20] 3.52 µM

O=[N+]([O-])C(=C1NCCN1)C(Cl)=C(Cl)Cl
inactive: [1] > 100 µM | [2] > 100 µM | [3] > 100 µM | [4] > 100 µM | [5] > 100 µM | [6] > 100 µM | [7] > 100 µM | [8] > 100 µM | [9] > 100 µM | [10] > 100 µM | [11] > 100 µM | [12] > 100 µM | [13] > 100 µM | [14] > 100 µM | [15] > 100 µM | [16] > 100 µM | [17] > 100 µM | [18] > 100 µM | [19] > 100 µM | [20] > 100 µM

COc1cc(-c2cc(=O)c3cc4c(cc3[nH]2)OCO4)cc(OC)c1O
inactive: [1] > 10 µM | [2] > 10 µM | [3] > 10 µM | [4] > 10 µM | [5] > 10 µM | [6] > 10 µM | [7] > 10 µM | [8] > 10 µM | [9] > 10 µM | [10] > 10 µM | [11] > 10 µM | [12] > 10 µM | [13] > 10 µM | [14] > 10 µM | [15] > 10 µM | [16] > 10 µM | [17] > 10 µM | [18] > 10 µM | [19] > 10 µM | [20] > 10 µM

From ChEMBL document CHEMBL1201862, “PubChem BioAssay data set” (2004)
